Laboratory results taken from ChEMBL document CHEMBL3817751, “Exploitation of a Novel Binding Pocket in Human Lipoprotein-Associated Phospholipase A2 (Lp-PLA2) Discovered through X-ray Fragment Screening” (J Med Chem, 2016).
Values after ≈ are worked out from the molar mass of the structure shown.

What was measured:
[1] = biological target: T1, Platelet-activating factor acetylhydrolase (Homo sapiens, UniProt Q13093); assay: Inhibition of human recombinant Lp-PLA2 using PED6 as substrate preincubated for 30 mins followed by substrate addition measured for 20 mins by fluorescence assay
T1 sequence (Q13093 whole entry): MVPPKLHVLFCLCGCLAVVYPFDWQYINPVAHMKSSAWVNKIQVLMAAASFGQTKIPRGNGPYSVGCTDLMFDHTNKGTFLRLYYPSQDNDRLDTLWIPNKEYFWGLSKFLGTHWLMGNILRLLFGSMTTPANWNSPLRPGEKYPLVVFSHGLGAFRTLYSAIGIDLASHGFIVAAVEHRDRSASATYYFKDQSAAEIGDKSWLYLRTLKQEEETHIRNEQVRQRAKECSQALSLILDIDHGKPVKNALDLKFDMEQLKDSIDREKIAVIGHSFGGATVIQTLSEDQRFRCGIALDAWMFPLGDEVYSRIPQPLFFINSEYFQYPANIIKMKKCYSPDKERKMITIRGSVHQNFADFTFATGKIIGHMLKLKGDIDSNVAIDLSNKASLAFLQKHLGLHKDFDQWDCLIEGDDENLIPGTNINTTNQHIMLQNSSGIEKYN

[2] = biological target: T1, Platelet-activating factor acetylhydrolase; assay: Binding affinity to N-terminal His6-tagged Lp-PLA2 (47 to 429 residues) (unknown origin) expressed in sf21 insect cells by ITC assay
[3] = biological target: T1, Platelet-activating factor acetylhydrolase; assay: Inhibition of human recombinant Lp-PLA2 using 2-thio-PAF as substrate after 20 mins by CPM-based fluorescence assay
[4] = Inhibition of human recombinant PLA2-7B using 2-thio-PAF as substrate after 20 mins by CPM-based fluorescence assay
[5] = biological target: T1, Platelet-activating factor acetylhydrolase; assay: Inhibition of Lp-PLA2 in human whole plasma using 2-thio-PAF as substrate preincubated for 15 mins followed by substrate addition measured after 3 mins by CPM-based fluorescence assay; assay type: cell-free
Homo sapiens = organism: Homo sapiens; assay: Selectivity ratio of IC50 for human recombinant PLA2-7B to IC50 for human recombinant Lp-PLA2
[6] = Lipophilicity, log D of the compound at pH 7.4 by reversed phase HPLC method; assay type: physicochemical; settings: buffer
[7] = Solubility of the compound in pH 7.4 phosphate buffered saline after 1 hr by chemiluminescent nitrogen detection assay; assay type: physicochemical
[8] = Apparent permeability of the compound after 3 hrs by HPLC-UV method; assay type: physicochemical; settings: not told
[9] = Binding affinity to human serum albumin/alpha-1 acidglycoprotein after 6 mins by HPLC method; assay type: ADME; settings: human serum albumin/alpha-1 acid glycoprotein, read-out: PB (converted)

Structure (SMILES)	IC50 [1]	IC50 [3]	IC50 [4]	IC50 [5]	further results
CC1(C)NC(=O)NC1=O	> 1000 µM				
O=C(c1cccc(F)c1)N1CC=CC1	500 µM				Kd [2]: 0.98 mM
Cc1ccccc1-c1cc(Nc2nccs2)ccc1C		1700 nM	11 µM		
Cc1ccccc1-c1cc(C(=O)N2CC=CC2)ccc1C		230 nM	89 µM		
Cc1ccccc1-c1cc(C(=O)N2CCCC2)ccc1C		30000 nM	> 100 µM		
Cc1ccc(N)cc1-c1ccccc1Cl	100 µM	100000 nM	43 µM		
Cc1ccccc1-c1cc(Nc2nc(CCCO)cs2)ccc1C		230 nM	> 10 µM	7100 nM	Ratio IC50 (Homo sapiens): > 40
Cc1ccccc1-c1cc(C(=O)c2nccs2)ccc1C		2000 nM	3.2 µM		
CC(C)COc1cc(=O)n(C)c(=O)n1C	1000 µM				
Cc1ccc(C(=O)N2CC=CC2)cc1-c1ccccc1Cl		180 nM	> 10 µM		
COC(CO)Cc1csc(Nc2cc(-c3ccccc3C)c(C)cc2OCCN)n1 (racemic)		2.4 nM	> 10 µM	28 nM	chromatographic logD [6]: 3.4; solubility at 1 h [7]: 195 µM (≈ 83.4 µg/mL); Papp at 3 h [8]: 21 ×10⁻⁶ cm/s; fraction unbound at 0.1 h [9]: 0.03
COC(CO)Cn1ccc(Nc2cc(-c3ccccc3C)c(C)cc2OCCN)n1 (racemic)		1.4 nM	> 1 µM	18 nM	chromatographic logD [6]: 3.2; solubility at 1 h [7]: 302 µM (≈ 124 µg/mL); Papp at 3 h [8]: 13 ×10⁻⁶ cm/s; fraction unbound at 0.1 h [9]: 0.05
COC(CO)Cc1csc(Nc2ccc(C)c(-c3ccccc3C)c2)n1 (racemic)		9.5 nM	> 10 µM	560 nM	Ratio IC50 (Homo sapiens): > 1000
COc1cc(C)c(-c2ccccc2C)cc1Nc1nc(CC(CO)OC)cs1 (racemic)		3.6 nM	6.1 µM	320 nM	
NS(=O)(=O)c1ccccc1 [BENZENESULFONAMIDE]	> 1000 µM				Kd [2]: 3.4 mM
CCN(CC)CCN(Cc1ccc(-c2ccc(C(F)(F)F)cc2)cc1)C(=O)Cn1c(SCc2ccc(F)cc2)nc(=O)c2c1CCC2 [DARAPLADIB]			0.063 µM		chromatographic logD [6]: 6.2; solubility at 1 h [7]: 8 µM (≈ 5.33 µg/mL); Papp at 3 h [8]: 23 ×10⁻⁶ cm/s; fraction unbound at 0.1 h [9]: 0.02
